Where two headings read alike, the source gives them in different places.
Experiments:
[1] = test system: neurons of the anterior thalamus; format: cell-based, mouse
Protocol: (§1) METHODS, Coronal slices were obtained from the thalamus of 8-12 day old mice using a Dosaka slicer in ice cold ACSF medium (125 mM NaCl/26 mM NaHCO3/25 mM Glucose/1.25 mM NaH2PO4/2.5 mM KCl 2.5/2 mM CaCl2/1 mM MgCl2 pH 7.3). Slices were maintained in the same medium for 1-8 hours. Cells in slices were visualized through a Zeiss microscope. Whole cell recordings were obtained with 2-4 MOhm hard-glass pipettes containing 150 mM CsCl/10 mM EGTA/10 mM HEPES/4 mM di-sodium ATP/4 mM MgCl2 pH adjusted to 7.3 with KOH. Five to ten sec. pulses of drug were applied rapidly to the cell through a […] pipette above the slice, fed by gravity with a solution containing 150 mM NaCl/10 mM Hepes/2.5 mM KCl/2 mM CaCl2/1 mM MgCl2. Recordings were made in the presence of CNQX (5 μM) and of the GABAA antagonist SR-95531 (10 μM). Currents were recorded with an Axopatch ID (Axon Instrument) patch amplifier, digitized on a Compaq PC and further analyzed with the PClamp program (Axon Instrument).

neurons in the MHb = test: Patch clamp recording of nicotine evoked currents, medial habenula (MHb); format: cell-based, mouse; conditions: for Agonist potency rank order: wild type
Protocol: as §1

[2] = test system: nuclear extracts from neuroblastomas or fibroblasts; test: Gel shift assay, competition against 32P labelled E-D probe; format: binding; conditions: excess of unlabelled competitor
Text: FIG. 7: Gel shift experiment. Autoradiogram of the mobility shift experiment. The probe used was a ^32P labelled double stranded E-D oligonucleotide. This oligonucleotide carries only the E-Box/Dyad element, whereas the oligonucleotide S-E carries the Sp1 binding site as well as the E-Box/Dyad element. The competitor oligonucleotides were used in 10- and 100-fold molar excess, except for S-E that was used only in 100-fold molar excess.
Oligonucleotides were labeled either with Y[^32P]ATP and T4 polynucleotide kinase, or with ∝[^32P]CTP and Klenow enzyme as in Current Protocols in Molecular Biology. Nuclear extracts were prepared from ˜10^7 cells as described (Bessis et al., 1993). For binding, […] of labeled oligonucleotide was mixed with 0.5 μg of protein extract in 10 mM Hepes pH 8, 10% glycerol], 0.1 mM EDTA, 0.1 M NaCl, 2 mM DTT, 0.1 mg/ml BSA, 4 mM MgCl2, 4 mM spermidine, 1 mM PMSF, 1 μg polydldC in 20 μl. The reaction was incubated for 10 minutes on ice. The DNA-protein complexes were then analyzed on a 7% polyacrylamide gel.
To further understand the role of the E-Box in the regulation of the promoter, we investigated the protein complexes able to interact with this sequence. Gel shift assays were performed using the 33 bp sequence (nt-135 to -103, oligonucleotide E-D) as a probe. […]

high affinity nAChR [3] = conditions: 3H-nicotine 4 nM, brain sections of β2−/− mice
Protocol: (§2) Following incubation, sections were rinsed 2×2 min. in ice cold PBS and briefly rinsed in ice cold water. Slides were exposed for 60 days to Hyperfilm ^3H.

high affinity nAChR [4] = target: high affinity nAChR (Mus musculus, UniProt O70174+Q9ERK7); conditions: 3H-nicotine 4 nM, all brain areas of β2+/− mice
high affinity nAChR (Mus musculus, UniProt O70174+Q9ERK7), sequence (Q9ERK7 26-501): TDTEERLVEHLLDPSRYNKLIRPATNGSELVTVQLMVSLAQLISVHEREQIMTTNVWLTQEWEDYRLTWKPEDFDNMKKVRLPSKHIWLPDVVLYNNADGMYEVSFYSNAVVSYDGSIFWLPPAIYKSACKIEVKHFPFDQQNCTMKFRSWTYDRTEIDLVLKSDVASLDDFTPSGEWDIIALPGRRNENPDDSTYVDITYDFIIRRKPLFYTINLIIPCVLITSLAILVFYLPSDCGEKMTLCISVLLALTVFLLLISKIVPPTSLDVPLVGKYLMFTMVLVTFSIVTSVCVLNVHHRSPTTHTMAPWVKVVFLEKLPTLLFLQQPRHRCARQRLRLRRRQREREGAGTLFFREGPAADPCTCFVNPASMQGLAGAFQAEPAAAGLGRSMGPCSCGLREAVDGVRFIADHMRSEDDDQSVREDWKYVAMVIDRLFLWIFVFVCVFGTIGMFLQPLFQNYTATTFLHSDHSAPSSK
high affinity nAChR (Mus musculus, UniProt O70174+Q9ERK7), sequence (O70174 31-629): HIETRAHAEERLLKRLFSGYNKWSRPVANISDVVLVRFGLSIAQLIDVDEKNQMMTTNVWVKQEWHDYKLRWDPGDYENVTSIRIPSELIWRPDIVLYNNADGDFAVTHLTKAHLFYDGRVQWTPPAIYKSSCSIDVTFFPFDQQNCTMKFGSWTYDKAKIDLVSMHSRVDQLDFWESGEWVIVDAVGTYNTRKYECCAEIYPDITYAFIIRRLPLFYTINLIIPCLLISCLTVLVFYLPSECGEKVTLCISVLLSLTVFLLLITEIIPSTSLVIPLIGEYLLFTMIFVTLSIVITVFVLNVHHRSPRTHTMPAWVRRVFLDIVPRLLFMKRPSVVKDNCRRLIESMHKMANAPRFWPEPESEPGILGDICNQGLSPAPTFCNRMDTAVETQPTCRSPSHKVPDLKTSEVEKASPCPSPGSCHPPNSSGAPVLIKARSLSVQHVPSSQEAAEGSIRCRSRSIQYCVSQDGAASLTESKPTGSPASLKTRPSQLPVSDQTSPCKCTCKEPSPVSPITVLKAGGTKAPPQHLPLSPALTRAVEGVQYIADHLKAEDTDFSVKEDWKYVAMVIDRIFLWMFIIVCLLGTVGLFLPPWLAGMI
Protocol: as §2

high affinity sites = conditions: read-out: KD of high affinity sites; equilibrium binding experiments; cited from earlier work
[5] = test system: β2−/− mice and their wildtype siblings
Protocol: METHODS, Passive avoidance test was performed as described in the text, according to Nordberg and Bergh^20 and Faiman et al^20. Nicotine (bitartrate, Sigma) was freshly dissolved in PBS. IP injection of the same volume of either nicotine or vehicle immediately followed footshock during the training trial.
Retention of an inhibitory avoidance response was assessed using the passive avoidance test, which was also chosen for its pharmacological sensitivity to nicotine administration ^19,20. This test consisted of a training trial in which the mouse was placed in a well-lighted chamber of a shuttle box, and the latency to enter the adjacent dark chamber was measured. Upon entry to the dark chamber, a mild, inescapable foot shock was delivered, and vehicle or nicotine (10 μg/kg) was injected into the mouse. Twenty-four (24) hours later, retention was assessed by measuring the latency to enter the dark chamber.

C[N+]1(C)CCN(c2ccccc2)CC1 [DMPP]
Agonist order of the response ([1]; wild type, anterior thalamus): nicotine>DMPP>cytisine
Agonist potency rank order (neurons in the MHb; MHb): cytisine=nicotine>DMPP

O=c1cccc2n1C[C@@H]1CNC[C@H]2C1 [cytisine]
Agonist order of the response [1]: nicotine>DMPP>cytisine
Agonist potency rank order (neurons in the MHb; MHb): cytisine=nicotine>DMPP

5′-TCCTCCCCTAGTAGTTCCACTTGTGTTCCCTAG [E-D]
Competition for complexes formed with labelled E-D probe [2]: fully displaced

5′-CCTCCCCTAGTAGTTCCTCAGGTGTTCCCTAGA [Mut.E]
Competition for complexes formed with labelled E-D probe [2]: no competition

CO[C@H]1CC=C2CCN3CCC4=C(CC(=O)OC4)[C@]23C1 [dihydro-β-erythroidine]
Effect on the nicotine evoked inward current ([1]; 1 μM antagonist, 10 μM nicotine, wild type): blocked

CN1CCCC1c1cccnc1 (stereo not shown) [nicotine]
Average inward current ([1]; 10 μM nicotine, wild type animals): 155+/−73 pA
Dose required for a reproducible response ([1]; anterior thalamic neurons): 1 µM
Agonist order of the response ([1]; wild type, anterior thalamus): nicotine>DMPP>cytisine
Response of anterior thalamic neurons to nicotine ([1]; β2−/− mice, 100% of neurons tested): completely abolished
Nicotine binding in situ (high affinity nAChR [3]): completely abolished
Reduction of nicotine binding in situ (high affinity nAChR [4]): approximately 50%
Kd (high affinity sites): ~0.01 µM
Response of cells in the MHb to nicotine (neurons in the MHb; mutant mice): maintained
Average inward current (neurons in the MHb; wild type mice, MHb): 505+/−132 pA
Agonist potency rank order (neurons in the MHb; MHb): cytisine=nicotine>DMPP
Upward shift of retention latency curve ([5]; nicotine 10 μg/kg IP post-training, retention after 24 hours, wild type mice, p<0.01): approximately 80 sec
Effect of nicotine administration on retention ([5]; nicotine 10 μg/kg, mutant (β2−/−) mice): completely ineffective

Source: patent US7294463B2, “Method of screening for compounds that modulate activity of a regulatory sequence of the β-2 subunit of a neuronal nicotinic acetylcholine receptor” (Institut Pasteur, priority 1994, dated 2007)
